The subject of this series is GENE-TOX genotoxicity assays, various organisms and cells. Description: GENE-TOX mutagenicity studies. The settings on record: for call: Assay Type: In vivo carcinogenicity studies.
[1] abbreviates: Species/Cell Type: Human, Assay Type: Sister-chromatid exchange (SCE) in vitro, Assay Code: SC1T, Evaluation Type: Evaluation B (Post-1980).
The mark [2] stands for this setting: Species/Cell Type: Allium cepa, Assay Type: Chromosome aberrations, Assay Code: ALC+, Evaluation Type: Evaluation A (Pre-1980).
[3] abbreviates: Species/Cell Type: Salmonella typhimurium (one or more of the five standard strains: TA98, TA100, TA1535, TA1537, and TA1538), Assay Type: Histidine reverse gene mutation, Ames assay, Assay Code: SAL+*, Activation: With metabolic activation, Evaluation Type: Evaluation A (Pre-1980).
The mark [4] stands for this setting: Species/Cell Type: Bacillus subtilis (H17 vs M45), Assay Type: Rec-assay, spot test, DNA effects (bacterial DNA repair), Assay Code: REWT, Evaluation Type: Evaluation A (Pre-1980).
[5] abbreviates: Species/Cell Type: Escherichia coli polA (W3119 vs P3478), Assay Type: Rec-assay, DNA effects (bacterial DNA repair), Assay Code: RE1T, Evaluation Type: Evaluation A (Pre-1980).
The mark [6] stands for this setting: Species/Cell Type: Salmonella typhimurium (one or more of the five standard strains: TA98, TA100, TA1535, TA1537, and TA1538), Assay Type: Histidine reverse gene mutation, Ames assay, Assay Code: SALT, Evaluation Type: Evaluation A (Pre-1980).
The mark [7] stands for this setting: Species/Cell Type: Nonhuman, Assay Type: Sister-chromatid exchange (SCE) in vitro, Assay Code: SC2T, Evaluation Type: Evaluation B (Post-1980).
[8] abbreviates: Species/Cell Type: Chinese hamster lung (V79) cells, Assay Type: Forward gene mutation at the HPRT or ouabain locus, Assay Code: V79-, Evaluation Type: Evaluation A (Pre-1980).
[9] abbreviates: Species/Cell Type: Salmonella typhimurium (one or more of the five standard strains: TA98, TA100, TA1535, TA1537, and TA1538), Assay Type: Histidine reverse gene mutation, Ames assay, Assay Code: SAL+, Evaluation Type: Evaluation A (Pre-1980).

Calls of active or inactive are those of the source. The rule behind the calls is not given here.

Turning to `Nc1nc2n[nH]nc2c(=O)[nH]1`, the mutagenic call (Species/Cell Type: Neurospora crassa, Assay Type: Aneuploidy, chromosome aberrations, Assay Code: NEN-, Evaluation Type: Evaluation A (Pre-1980)) is “inactive; negative”. `N=C(N)SCCN`: the mutagenic call is, setting by setting: (Species/Cell Type: Human lymphocytes, Assay Type: Sister-chromatid exchange (SCE) in vitro, Assay Code: SCL+, Evaluation Type: Evaluation B (Post-1980)) “active; positive”; (Species/Cell Type: Human lymphocytes, Assay Type: Sister-chromatid exchange (SCE) in vitro, Assay Code: SCLT, Evaluation Type: Evaluation B (Post-1980)) “no conclusion”; (Species/Cell Type: Human, Assay Type: Sister-chromatid exchange (SCE) in vitro, Assay Code: SC1+, Evaluation Type: Evaluation B (Post-1980)) “active; positive”; under setting [1], “no conclusion”.

`Nc1cccc(N)c1`: the mutagenic call was “active; positive” under setting [2]; “no conclusion” (Species/Cell Type: Rodents, Sex: Male, Assay Type: Dominant lethal test, Assay Code: DLTT, Evaluation Type: Evaluation A (Pre-1980)); “active; positive” under setting [3]; “active; positive” (Species/Cell Type: Syrian hamster embryo (SHE) cells, Assay Type: Cell transformation, clonal assay, Assay Code: CTC+, Evaluation Type: Evaluation A (Pre-1980)). With `[O-][n+]1ccccc1`, the mutagenic call (Species/Cell Type: Bacillus subtilis (H17 vs M45), Assay Type: Rec-assay, spot test, DNA effects (bacterial DNA repair), Assay Code: REW+, Evaluation Type: Evaluation A (Pre-1980)) was “active; positive” and the mutagenic call (Species/Cell Type: Escherichia coli polA (W3119 vs P3478), Assay Type: Rec-assay, DNA effects (bacterial DNA repair), Assay Code: RE1-, Evaluation Type: Evaluation A (Pre-1980)) was “inactive; negative”.

`O=S(=O)(O)c1cc(S(=O)(=O)O)c2c(N=Nc3ccc(S(=O)(=O)O)c4ccccc34)c(O)ccc2c1`: the mutagenic call runs as follows: under setting [4], “no conclusion”; (Species/Cell Type: Bacillus subtilis (H17 vs M45T), Assay Type: Rec-assay, spot test, DNA effects (bacterial DNA repair), Assay Code: REXT, Evaluation Type: Evaluation A (Pre-1980)) “no conclusion”; (Species/Cell Type: Saccharomyces cerevisiae, Assay Type: Mitotic recombination or gene conversion, Assay Code: YEC-, Evaluation Type: Evaluation A (Pre-1980)) “inactive; negative”. On to `Nc1ccc(C(=O)O)c(O)c1`, for which the mutagenic call under setting [5] was “no conclusion”. As to `Cc1cc2nc3ccc(N(C)C)cc3nc2cc1NC(=O)CN(C)N=O`, under setting [6], the mutagenic call is reported as “no conclusion”. Regarding `Cc1cc2ccccc2c2c(F)cc3ccccc3c12`, the mutagenic call under setting [6] is “no conclusion”. Turning to `O`, the mutagenic call under setting [4] is recorded as “no conclusion”; the mutagenic call under setting [7] is “no conclusion”; the mutagenic call (Species/Cell Type: Syrian hamster embryo (SA7/SHE) cells, Assay Type: Cell transformation, viral enhanced, Assay Code: CT7-, Evaluation Type: Evaluation A (Pre-1980)) was “inactive; negative”. Take `COc1cc2c(c3oc4cccc(OC(C)=O)c4c(=O)c13)C1C=COC1O2` (stereo not drawn): the mutagenic call under setting [6] is “no conclusion”.

Consider `C=CC(=O)c1ccc2c(c1)OCO2`, for which the mutagenic call under setting [6] is recorded as “no conclusion”. As to `O=C(OCC1=CCN2CC[C@@H](OC(=O)c3ccc(Cl)cc3)[C@@H]12)c1ccc(Cl)cc1`, the mutagenic call under setting [2] is “active; positive”. In the case of `FC(F)(F)C(Cl)Br` (stereo not drawn), the mutagenic call was “inactive; negative” under setting [8]; “active; positive” (Species/Cell Type: Drosophila melanogaster, Assay Type: Sex-linked recessive lethal gene mutation, Assay Code: SRL+, Evaluation Type: Evaluation A (Pre-1980)); “active; positive” (Species/Cell Type: Human lymphocytes, Assay Type: Sister-chromatid exchange (SCE) in vivo, Assay Code: SCY+, Evaluation Type: Evaluation B (Post-1980)); “inactive; negative” (Species/Cell Type: Mouse, Sex: Male, Assay Type: Sperm morphology, Assay Code: SPI-, Evaluation Type: Evaluation A (Pre-1980)); “no conclusion” under setting [7]; “no conclusion” (Species/Cell Type: Nonhuman, Assay Type: Sister-chromatid exchange (SCE) in vivo, Assay Code: SC3T, Evaluation Type: Evaluation B (Post-1980)). For the same molecule, the mutagenic call is, setting by setting: (Species/Cell Type: Saccharomyces cerevisiae, Assay Type: Mitotic recombination or gene conversion, Assay Code: YEC+, Evaluation Type: Evaluation A (Pre-1980)) “active; positive”; (Species/Cell Type: Saccharomyces cerevisiae, Assay Type: Mitotic recombination or gene conversion, Assay Code: YEH+, Evaluation Type: Evaluation A (Pre-1980)) “active; positive”; (Species/Cell Type: Saccharomyces cerevisiae, Assay Type: Reverse gene mutation, Assay Code: YER+, Evaluation Type: Evaluation A (Pre-1980)) “active; positive”; (Species/Cell Type: Vicia faba, Assay Type: Chromosome aberrations, Assay Code: VIC+D, Dose Response: With dose response, Evaluation Type: Evaluation A (Pre-1980)) “active; positive”. Besides, the call (Species/Cell Type: Nonhuman, Assay Code: CCG-L, Evaluation Type: Evaluation A (Pre-1980)) was “inactive; negative”. `O=C1O[C@H]([C@H](O)CO)C(O)=C1O`: the mutagenic call under setting [1] is “no conclusion”. Turning to `CN(CCCCOC[C@H](N)C(=O)O)N=O`, the mutagenic call is, setting by setting: (Species/Cell Type: Escherichia coli polA (W3110 vs P3478), Assay Type: Rec-assay, DNA effects (bacterial DNA repair), Assay Code: RE2-, Evaluation Type: Evaluation A (Pre-1980)) “inactive; negative”; under setting [5], “no conclusion”. In the case of `COc1ccc(CCC(=O)c2c(O)cc(O[C@@H]3O[C@H](CO)[C@@H](O)[C@H](O)[C@H]3O[C@@H]3O[C@@H](C)[C@H](O)[C@@H](O)[C@H]3O)cc2O)cc1O`, the mutagenic call is “active; positive” (Species/Cell Type: Mammalian polychromatic erythrocytes, Assay Type: Micronucleus test, chromosome aberrations, Assay Code: MNT+, Evaluation Type: Evaluation B (Post-1980)); “inactive; negative” (Species/Cell Type: Salmonella typhimurium, Assay Type: Forward and reverse gene mutation, host-mediated assay, Assay Code: HMA-, Evaluation Type: Evaluation A (Pre-1980)). Turning to `CCN(Cc1cccc(S(=O)(=O)O)c1)c1ccc(C(=C2C=CC(=[N+](CC)Cc3cccc(S(=O)(=O)[O-])c3)C=C2)c2ccccc2)cc1`, the mutagenic call under setting [4] is recorded as “no conclusion”. `Oc1cc2cccc3ccc4cc5ccccc5c1c4c32`: the mutagenic call reads like this: under setting [8], “inactive; negative”; under setting [6], “no conclusion”. For the same molecule, under “Species/Cell Type: Nonhuman, Assay Code: CCG+L, Evaluation Type: Evaluation A (Pre-1980)”, the call was “active; positive”. Take `OC[C@H]1O[C@@H](n2cnc3cncnc32)[C@H](O)[C@@H]1O`: where the note is “Species/Cell Type: Arabidopsis species, Assay Type: Gene mutation, Assay Code: ARM-, Evaluation Type: Evaluation A (Pre-1980)”, the mutagenic call is “inactive; negative”. As for `CCOC(=O)N(CCOC(C)=O)N=O`, under setting [9], the mutagenic call was “active; positive”. Consider `O=c1nc(NO)ccn1[C@@H]1O[C@H](CO)[C@@H](O)[C@H]1O`, for which the mutagenic call is, setting by setting: (Species/Cell Type: Escherichia coli WP2, Assay Type: Tryptophan reverse gene mutation, Assay Code: WP2+D, Dose Response: With dose response, Evaluation Type: Evaluation A (Pre-1980)) “active; positive”; (Species/Cell Type: Escherichia coli WP2 UVRA, Assay Type: Tryptophan reverse gene mutation, Assay Code: WPU+D, Dose Response: With dose response, Evaluation Type: Evaluation A (Pre-1980)) “active; positive”. On to `O=c1cccc2cc(O)c(O)c(O)c2c1O`, for which the mutagenic call (Species/Cell Type: Allium cepa, Assay Type: Chromosome aberrations, Assay Code: ALC-, Evaluation Type: Evaluation A (Pre-1980)) is “inactive; negative”. Regarding `C[C@@H]1C[C@@H]2OC(=O)[C@]3(C)[C@H]2[C@@H](OC3(C)O)[C@]2(C)C(=O)C=C[C@@H]12` (stereo partly drawn), for the setting “Species/Cell Type: Salmonella typhimurium (one or more of the five standard strains: TA98, TA100, TA1535, TA1537, and TA1538), Assay Type: Histidine reverse gene mutation, Ames assay, Assay Code: SAL-, Evaluation Type: Evaluation A (Pre-1980)”, the mutagenic call is “inactive; negative”. Turning to `O=C(O)[C@H]1O[C@@H](N(O)c2ccc(-c3ccccc3)cc2)[C@H](O)[C@@H](O)[C@@H]1O`, under setting [9], the mutagenic call is “active; positive”. As to `O=C(COc1ccc(Br)cc1CN1CCOCC1)N/N=C/c1ccccc1O`, the mutagenic call (Species/Cell Type: Saccharomyces cerevisiae, Assay Type: Reverse gene mutation, Assay Code: YERT, Evaluation Type: Evaluation A (Pre-1980)) is “no conclusion”. With `CC[C@@]1(O)C[C@H](O[C@H]2C[C@H](N(C)C)[C@H](O)[C@H](C)O2)c2c(cc3c(c2O)C(=O)c2c(O)cccc2C3=O)[C@H]1C(=O)OC`, under setting [6], the mutagenic call is listed as “no conclusion”. In the case of `CCC1(O)CC(OC2CC(N)C(OC3CC(O)C(OC4CCC(=O)C(C)O4)C(C)O3)C(C)O2)c2c(cc3c(c2O)C(=O)c2c(O)cccc2C3=O)C1C(=O)OC` (stereo not drawn), under setting [3], the mutagenic call is “active; positive”. As to `CCOC(=O)/C=C(C)/C=C/C=C(C)/C=C/c1c(C)cc(OC)c(C)c1C`, the mutagenic call reads like this: (Species/Cell Type: Human, Assay Type: Sister-chromatid exchange (SCE) in vitro, Assay Code: SC1+D, Dose Response: With dose response, Evaluation Type: Evaluation A (Pre-1980)) “active; positive”; (Species/Cell Type: Mammalian polychromatic erythrocytes, Assay Type: Micronucleus test, chromosome aberrations, Assay Code: MNTT, Evaluation Type: Evaluation B (Post-1980)) “no conclusion”; under setting [7], “no conclusion”.

As for `NCC(O)CCl` (stereo not drawn), the mutagenic call (Species/Cell Type: Rodents, Sex: Male, Assay Type: Dominant lethal test, Assay Code: DLT-, Evaluation Type: Evaluation A (Pre-1980)) is “inactive; negative”. Take `O=NN1CCCN(N=O)CC1`: under setting [3], the mutagenic call is “active; positive”.
